± gives the standard deviation of the averaged measurements.
Tests used:
Test in all cases: level (log10 ratio to DMSO vehicle control); higher = higher biomarker level / cell amount than vehicle control
Conditions in all cases: in DMSO
[1] = compound: NCC(F)(F)C(F)(F)C(F)(F)C(F)(F)C(F)(F)C(F)(F)C(F)(F)F [1H,1H-Perfluorooctylamine]
Method: (§1)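 BioMAP Diversity Plus panel of 12 human primary cell co-culture systems (3C, 4H, LPS, SAg, BT, BF4T, BE3C, CASM3C, HDF3CGF, KF3CT, MyoF, Mphg). Compounds were added 1 h before stimulation and left for 24 h (MyoF 48 h; BT 72 h for soluble read-outs or 6 d for IgG). Biomarkers were read by ELISA, cytotoxicity by SRB, PBMC viability and proliferation by Alamar Blue. Each well value was divided by the mean of 8 DMSO control wells on the same plate and log10 transformed; duplicate blinded samples were tested at 4 concentrations.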

[2] = compound: OCC(F)(F)OC(F)(F)C(F)(F)OC(F)(F)CO [1H,1H,8H,8H-Perfluoro-3,6-dioxaoctane-1,8-diol]
Method: as §1

Perfluorobutanoic acid = compound: O=C(O)C(F)(F)C(F)(F)C(F)(F)F [Perfluorobutanoic acid]
Method: as §1

[3] = compound: C=CC(F)(F)C(F)(F)C(F)(F)C(F)(F)C(F)(F)C(F)(F)C(F)(F)C(F)(F)C=C [1,8-Divinylperfluorooctane]
Method: as §1

[4] = compound: CCN(CCO)S(=O)(=O)C(F)(F)C(F)(F)C(F)(F)C(F)(F)C(F)(F)C(F)(F)C(F)(F)C(F)(F)F [N-Ethyl-N-(2-hydroxyethyl)perfluorooctanesulfonamide]
Method: as §1

[5] = compound: O=C(O)C(F)(F)OC(F)(F)C(F)(F)OC(F)(F)C(=O)O [Perfluoro-3,6-dioxaoctane-1,8-dioic acid]
Method: as §1

Perfluoropropanoic acid = compound: O=C(O)C(F)(F)C(F)(F)F [Perfluoropropanoic acid]
Method: as §1

Row | Test System | level (log10) ([1]; 6700 nM) | level (log10) ([1]; 20000 nM) | level (log10) ([1]; 60000 nM) | level (log10) ([2]; 6700 nM) | level (log10) ([2]; 20000 nM) | level (log10) ([2]; 60000 nM) | level (log10) (Perfluorobutanoic acid; 6700 nM) | level (log10) (Perfluorobutanoic acid; 20000 nM) | level (log10) (Perfluorobutanoic acid; 60000 nM) | level (log10) ([3]; 6700 nM) | level (log10) ([3]; 20000 nM) | level (log10) ([4]; 6700 nM) | level (log10) ([4]; 20000 nM) | level (log10) ([5]; 6700 nM) | level (log10) ([5]; 20000 nM) | level (log10) ([5]; 60000 nM) | level (log10) (Perfluoropropanoic acid; 6700 nM) | level (log10) (Perfluoropropanoic acid; 20000 nM) | level (log10) (Perfluoropropanoic acid; 60000 nM)
1 | CASM3C:CD106/VCAM-1 | -0.018 ± 0.058 | -0.007 ± 0.035 | -0.0105 ± 0.015 | 0.0125 ± 0.0078 | -0.005 ± 0.0028 | 0.0015 ± 0.0035 | -0.007 ± 0.016 | -0.006 ± 0.0014 | -0.039 ± 0.018 | -0.018 ± 0.0042 | -0.019 ± 0.02 | -0.085 ± 0.0057 | -0.219 ± 0.021 | -0.005 ± 0.0014 | -0.003 ± 0.0042 | 0.0175 ± 0.042 | 0.027 ± 0.025 | 0.0445 ± 0.052 | 0.0445 ± 0.0078
2 | CASM3C:CD141/Thrombomodulin | -0.017 ± 0.025 | -0.0055 ± 0.005 | 0.031 ± 0.045 | -0.0045 ± 0.0021 | 0.0035 ± 0.005 | 0.001 ± 0.016 | 0.0145 ± 0.021 | 0.022 ± 0.0028 | -0.0045 ± 0.037 | 0.0015 ± 0.022 | -0.0145 ± 0.0078 | 0.078 ± 0.014 | 0.191 ± 0.013 | 0.0045 ± 0.018 | 0.002 ± 0.0028 | 0.017 ± 0.0071 | -0.05 ± 0.031 | 0.024 ± 0.0099 | 0.0245 ± 0.066
3 | CASM3C:CD142/Tissue Factor | -0.018 ± 0.0014 | -0.0135 ± 0.015 | 0.021 ± 0.03 | -0.014 ± 0.0099 | -0.013 ± 0.023 | 0.0165 ± 0.0064 | -0.002 | 0.007 ± 0.0099 | -0.0505 ± 0.00071 | 0.0035 ± 0.028 | -0.0085 ± 0.005 | -0.0325 ± 0.012 | 0.0145 ± 0.022 | -0.012 ± 0.013 | -0.0275 ± 0.022 | 0.0215 ± 0.053 | -0.0995 ± 0.039 | -0.0395 ± 0.03 | -0.0085 ± 0.039
4 | CASM3C:CXCL8/IL-8 | -0.005 ± 0.0057 | -0.022 ± 0.013 | 0.005 ± 0.027 | 0.0045 ± 0.0064 | -0.002 ± 0.0028 | 0.0125 ± 0.013 | -0.001 ± 0.013 | -0.0065 ± 0.005 | 0.008 ± 0.013 | -0.017 ± 0.011 | -0.0145 ± 0.015 | -0.0075 ± 0.016 | -0.024 ± 0.0085 | 0.016 ± 0.042 | 0.0125 ± 0.011 | 0.023 ± 0.0071 | 0.001 ± 0.011 | -0.003 ± 0.023 | 0.0185 ± 0.043
5 | CASM3C:CXCL9/MIG | -0.014 ± 0.021 | -0.0245 ± 0.0021 | 0.006 ± 0.04 | 0.0055 ± 0.012 | 0.0175 ± 0.011 | 0.0205 ± 0.0035 | 0.001 ± 0.0028 | -0.004 ± 0.0028 | 0.007 ± 0.0057 | -0.013 ± 0.0085 | -0.0115 ± 0.011 | -0.0675 ± 0.005 | -0.166 ± 0.073 | -0.002 ± 0.0057 | -0.011 ± 0.013 | 0.03 ± 0.047 | 0.0125 ± 0.015 | 0.0125 ± 0.012 | 0.0255 ± 0.037
6 | CASM3C:HLA-DR | -0.01 ± 0.0028 | -0.0085 ± 0.032 | 0.029 ± 0.0042 | 0.0315 ± 0.025 | 0.0075 ± 0.011 | 0.0045 ± 0.029 | 0.012 ± 0.011 | 0.0065 ± 0.015 | -0.0085 ± 0.018 | -0.0125 ± 0.011 | -0.0155 ± 0.0092 | -0.002 ± 0.024 | -0.111 ± 0.013 | -0.022 ± 0.018 | -0.0385 ± 0.019 | 0.0135 ± 0.063 | 0.015 ± 0.023 | -0.013 ± 0.011 | 0.0365 ± 0.0021
7 | CASM3C:IL-6 | -0.0245 ± 0.037 | 0.0005 ± 0.057 | 0.035 ± 0.081 | -0.017 ± 0.011 | -0.009 ± 0.0014 | 0.0215 ± 0.056 | -0.0295 ± 0.012 | -0.0175 ± 0.021 | 0.0115 ± 0.044 | -0.033 ± 0.024 | 0.003 ± 0.055 | -0.0025 ± 0.0035 | -0.0255 ± 0.044 | -0.0065 ± 0.047 | -0.014 ± 0.027 | 0.0285 ± 0.00071 | -0.0205 ± 0.056 | -0.025 ± 0.0071 | -0.0045 ± 0.035
8 | CASM3C:LDLR | -0.0295 ± 0.005 | -0.018 ± 0.023 | 0.007 ± 0.0042 | 0.005 ± 0.0014 | 0.0055 ± 0.019 | 0.0235 ± 0.039 | -0.013 ± 0.028 | -0.018 ± 0.02 | 0.0095 ± 0.015 | 0.008 | 0.0495 ± 0.019 | -0.076 ± 0.0057 | -0.223 ± 0.021 | 0.015 ± 0.034 | -0.0115 ± 0.0035 | 0.0155 ± 0.015 | -0.0845 ± 0.07 | -0.036 ± 0.054 | -0.022 ± 0.073
9 | CASM3C:M-CSF | -0.059 ± 0.027 | -0.0055 ± 0.0078 | 0.0115 ± 0.061 | -0.014 ± 0.0014 | -0.0105 ± 0.005 | 0.0115 ± 0.0092 | -0.0095 ± 0.0064 | -0.0205 ± 0.013 | 0.0275 ± 0.063 | -0.0375 ± 0.011 | -0.0235 ± 0.023 | 0.0045 ± 0.00071 | 0.0395 ± 0.0092 | 0.0205 ± 0.016 | -0.0025 ± 0.0035 | 0.0385 ± 0.011 | -0.0265 ± 0.16 | 0.0055 ± 0.0092 | 0.034 ± 0.065
10 | CASM3C:PAI-I | -0.0055 ± 0.012 | 0.0025 ± 0.0064 | -0.0015 ± 0.005 | 0.006 ± 0.0028 | 0 ± 0.0028 | 0.011 ± 0.017 | -0.002 ± 0.0099 | -0.003 ± 0.018 | -0.0005 ± 0.011 | -0.0015 ± 0.00071 | 0.004 ± 0.0028 | 0 ± 0.0071 | 0.004 ± 0.0085 | 0.0025 ± 0.00071 | 0.0005 ± 0.0078 | 0.0155 ± 0.0064 | -0.0035 ± 0.0021 | -0.003 ± 0.0014 | 0.0005 ± 0.0064
11 | CASM3C:Proliferation | 0.0025 ± 0.012 | 0.005 ± 0.016 | -0.0095 ± 0.0092 | -0.0225 ± 0.0021 | -0.0045 ± 0.028 | 0.0065 ± 0.026 | 0.01 ± 0.0099 | -0.0015 ± 0.025 | -0.007 ± 0.017 | -0.018 ± 0.027 | 0.0305 ± 0.013 | 0.011 ± 0.04 | -0.175 ± 0.005 | 0.0055 ± 0.0035 | -0.0135 ± 0.025 | -0.0075 ± 0.0092 | 0.0065 ± 0.0035 | -0.0355 ± 0.063 | 0.017 ± 0.033
12 | CASM3C:SRB | -0.002 ± 0.0028 | -0.001 ± 0.013 | 0.0035 ± 0.018 | -0.008 ± 0.0014 | -0.003 ± 0.0042 | -0.009 ± 0.0057 | 0.0005 ± 0.0064 | -0.0055 ± 0.011 | 0.002 ± 0.0042 | 0.002 ± 0.0042 | -0.003 ± 0.0014 | -0.0265 ± 0.0078 | -0.097 ± 0.014 | 0.0035 ± 0.0021 | -0.006 ± 0.0028 | 0.0085 ± 0.005 | 0.0035 ± 0.00071 | -0.0015 ± 0.00071 | -0.0015 ± 0.005
13 | CASM3C:Serum Amyloid A | 0.0345 ± 0.036 | 0.043 ± 0.069 | 0.015 ± 0.061 | -0.0235 ± 0.044 | -0.0195 ± 0.043 | -0.036 ± 0.025 | -0.021 | 0.0225 ± 0.016 | -0.009 ± 0.041 | -0.0145 ± 0.0035 | -0.011 ± 0.0085 | 0.0875 ± 0.037 | 0.129 ± 0.042 | -0.012 ± 0.0028 | -0.0235 ± 0.011 | 0.0265 ± 0.06 | -0.05 ± 0.033 | -0.0755 ± 0.026 | -0.0465 ± 0.054
14 | HDF3CGF:CCL2/MCP-1 | -0.006 ± 0.016 | -0.0045 ± 0.012 | -0.0165 ± 0.0078 | 0.0015 ± 0.0092 | 0.0025 ± 0.012 | 0.026 ± 0.047 | -0.008 ± 0.021 | 0.004 ± 0.014 | 0.017 ± 0.0014 | -0.022 ± 0.0042 | -0.005 ± 0.011 | -0.0485 ± 0.005 | -0.1335 ± 0.00071 | 0 ± 0.016 | 0.005 ± 0.0071 | 0.0135 ± 0.016 | -0.022 ± 0.047 | -0.024 ± 0.04 | 0.017 ± 0.051
15 | HDF3CGF:CD54/ICAM-1 | -0.003 ± 0.013 | -0.0055 ± 0.011 | -0.0095 ± 0.0078 | 0.005 ± 0.0028 | -0.0165 ± 0.005 | -0.01 ± 0.014 | -0.005 ± 0.016 | 0.0035 ± 0.00071 | 0.001 ± 0.0057 | 0.003 ± 0.028 | 0.0475 ± 0.028 | 0.133 ± 0.019 | 0.089 ± 0.0042 | -0.0095 ± 0.0092 | 0.0015 ± 0.00071 | -0.0085 ± 0.0035 | 0.007 ± 0.016 | 0.0065 ± 0.005 | -0.0045 ± 0.00071

— the supplement of paper PMC10331698
